{
  "source": "patent US20120277180A1",
  "about": "“Cofactors and Methods for Use for Individuals” (VITAPATH GENETICS, INC, priority 2009, published 2012)",
  "key": {"[1]": {"test_system": "fol3Δ::KanMX MET13 haploid yeast", "type": "cell-based, S. cerevisiae", "conditions": "for Effect of folinic acid supplementation on growth: fol3Δ MET13 cells"}, "human MTHFR [2]": {"target": "T1, human MTHFR (Homo sapiens, UniProt P42898)", "T1 construct": "expressed in transfected cells; host or cells: Saccharomyces cerevisiae fol3Δ::KanMX met13Δ::KanMX (S288c background), GAL1 promoter", "test": "In vivo yeast complementation growth assay: MTHFR alleles in fol3 met13 haploid yeast, growth without methionine with titrated folinic acid", "type": "cell-based", "conditions": "folinic acid above 50 ug/ml; fol3 met13 cells"}, "[3]": {"conditions": "upper level of intake considered safe for adults; cited from earlier work"}, "human MTHFR [4]": {"test_system": "human MTHFR", "test": "Thermolability of MTHFR variants (heat treatment at 55° C. before enzyme assay)", "type": "biochemical", "protocol": "MTHFR enzyme activity assay. The assay, which measures the reverse reaction of that catalyzed by MTHFR under physiological conditions, was as described (Shan et al, 1999, supra) with the following modifications: Yeast extracts were created by bead lysis of 40 CD595 cell equivalents (fol3Δ met13Δ cells supplemented with folinic acid and methionine as above) in 350 ul of Lysis Buffer (100 mM Sucrose, 50 mM KHPO4 (pH 6.3), protease inhibitor cocktail). Extracts were clarified by a brief microcentrifugation, and 10-200 ug of extract used to determine the linear range of activity. Radiolabeled substrate (5-[^14C]MeTHF) was from GE Healthcare Life Sciences. For heat treatment, the reaction mixes without 5-[^14C]MeTHF were heated to 55° C. for the indicated times at which point 5-[^14C]MeTHF was added back and the reaction proceeded.\nIn addition to measuring specific activity, variants were tested for thermolability (a measure of enzyme stability) by heat treatment at 55° C. for various times."}, "human MTHFR [5]": {"test_system": "human MTHFR", "test": "In vivo yeast complementation growth assay: MTHFR alleles in fol3 met13 haploid yeast, growth without methionine with titrated folinic acid", "type": "cell-based", "conditions": "for Functional impact / folate-responsiveness of MTHFR allele (growth in the absence of methionine): over a range of folinic acid concentrations, relative to the major allele; for Interaction of substitutions in compound (double-substitution) alleles with A222V: growth at 50 and 25 ug/ml folinic acid"}, "human CBS": {"test_system": "human CBS", "test": "Yeast complementation assay for CBS as a function of pyridoxine (cys4, sno/snz sextuple-delete strain)", "type": "cell-based", "conditions": "qualitative growth on solid media"}},
  "note": "Entries after “also recorded” stand apart in the source; their conditions may differ. Read-outs that look alike come from different tables or passages of the source.",
  "data": [
    {"molecule": "5-formyl-tetrahydrofolate [folinic acid]", "values": [
      {"measurement": "Folinic acid supplementation compared to growth of FOL3 cells", "setting": "[1]; fol3Δ cells vs FOL3 cells", "value": "did not completely compensate for lack of endogenous folate biosynthesis"},
      {"measurement": "Effect of folinic acid supplementation on growth", "setting": "[1]; folinic acid above 50 ug/ml", "value": "did not confer any significant growth advantage"},
      {"measurement": "Effect of folinic acid supplementation on growth", "setting": "[1]; folinic acid below 50 ug/ml", "value": "growth clearly correlated with available folinic acid in the medium"},
      {"measurement": "Effect of folinic acid supplementation on growth of cells expressing the major human MTHFR allele", "setting": "human MTHFR [2]", "value": "did not confer a significant growth advantage"}
    ]},
    {"molecule": "C[N+](C)(C)CCO", "note": "[Choline]", "values": [
      {"measurement": "UL (Upper Limit)", "setting": "[3]", "value": 3500, "unit": "mg"}
    ]},
    {"molecule": "O=C(O)c1cccnc1", "note": "[Niacin]", "values": [
      {"measurement": "UL (Upper Limit)", "setting": "[3]", "value": 35, "unit": "mg"}
    ]},
    {"molecule": "O=C1O[C@H]([C@@H](O)CO)C(O)=C1O", "note": "[Vitamin C]", "values": [
      {"measurement": "UL (Upper Limit)", "setting": "[3]", "value": 2000, "unit": "mg"}
    ]},
    {"molecule": "A222V: common functionally impaired human MTHFR variant, catalytic domain substitution A222V", "values": [
      {"measurement": "Thermolability", "setting": "human MTHFR [4]", "value": "lost nearly all activity"},
      {"measurement": "Functional impact / folate-responsiveness of MTHFR allele (growth in the absence of methionine)", "setting": "human MTHFR [5]", "value": "folate-remedial behavior"}
    ]},
    {"molecule": "D223N: novel low-frequency human MTHFR variant, catalytic domain substitution D223N", "values": [
      {"measurement": "Thermolability", "setting": "human MTHFR [4]", "value": "increased thermolability"},
      {"measurement": "Functional impact / folate-responsiveness of MTHFR allele (growth in the absence of methionine)", "setting": "human MTHFR [5]", "value": "folate-remedial activity similar to A222V (though less severely impaired); also recorded: folate-remedial behavior"}
    ]},
    {"molecule": "D291N: low-frequency human MTHFR variant, catalytic domain substitution D291N", "values": [
      {"measurement": "Interaction of substitutions in compound (double-substitution) alleles with A222V", "setting": "human MTHFR [5]", "value": "synergized when combined with A222V"},
      {"measurement": "Functional impact / folate-responsiveness of MTHFR allele (growth in the absence of methionine)", "setting": "human MTHFR [5]", "value": "folate-remedial behavior"}
    ]},
    {"molecule": "H213R: low-frequency human MTHFR variant, catalytic domain substitution H213R", "values": [
      {"measurement": "Functional impact / folate-responsiveness of MTHFR allele (growth in the absence of methionine)", "setting": "human MTHFR [5]", "value": "benign"}
    ]},
    {"molecule": "M110I A222V: doubly-substituted compound human MTHFR allele", "values": [
      {"measurement": "Interaction of substitutions in compound (double-substitution) alleles with A222V", "setting": "human MTHFR [5]", "value": "functioned more poorly than the sum of the individual alleles"}
    ]},
    {"molecule": "M110I: low-frequency human MTHFR variant, catalytic domain substitution M110I", "values": [
      {"measurement": "MTHFR function (growth) relative to the major allele", "setting": "human MTHFR [5]; 50 ug/ml folinic acid", "value": "nearly indistinguishable from the major allele"},
      {"measurement": "Interaction of substitutions in compound (double-substitution) alleles with A222V", "setting": "human MTHFR [5]", "value": "synergized when combined with A222V"},
      {"measurement": "Functional impact / folate-responsiveness of MTHFR allele (growth in the absence of methionine)", "setting": "human MTHFR [5]", "value": "folate-remedial behavior"},
      {"measurement": "Functional impact / folate-responsiveness of MTHFR allele (growth in the absence of methionine)", "setting": "human MTHFR [5]; listed as MilOl", "value": "folate-remedial activity similar to A222V (though less severely impaired)"}
    ]},
    {"molecule": "R134C: low-frequency human MTHFR variant, catalytic domain substitution R134C", "values": [
      {"measurement": "Functional impact / folate-responsiveness of MTHFR allele (growth in the absence of methionine)", "setting": "human MTHFR [5]", "value": "severely impaired at all folate concentrations; also recorded: responsive, but not a remedial allele; also recorded: nearly loss-of-function"}
    ]},
    {"molecule": "R519C: low-frequency human MTHFR variant, regulatory domain substitution R519C", "values": [
      {"measurement": "Functional impact / folate-responsiveness of MTHFR allele (growth in the absence of methionine)", "setting": "human MTHFR [5]", "value": "benign"}
    ]},
    {"molecule": "Vitamin B-6", "values": [
      {"measurement": "UL (Upper Limit)", "setting": "[3]", "value": 100, "unit": "mg"}
    ]},
    {"molecule": "major allele: most common human MTHFR allele in the population, expressed in yeast", "values": [
      {"measurement": "Functional impact / folate-responsiveness of MTHFR allele (growth in the absence of methionine)", "setting": "human MTHFR [5]", "value": "did not completely compensate for loss of Met13p"}
    ]},
    {"molecule": "1278T: homocystinuria allele of human CBS, vitamin B6-responsive (protein, UniProt P35520 1-551, looked up, variant I278T) Cystathionine beta-synthase: MPSETPQAEVGPTGCPHRSGPHSAKGSLEKGSPEDKEAKEPLWIRPDAPSRCTWQLGRPASESPHHHTAPAKSPKILPDILKKIGDTPMVRINKIGKKFGLKCELLAKCEFFNAGGSVKDRISLRMIEDAERDGTLKPGDTIIEPTSGNTGIGLALAAAVRGYRCIIVMPEKMSSEKVDVLRALGAEIVRTPTNARFDSPESHVGVAWRLKNEIPNSHILDQYRNASNPLAHYDTTADEILQQCDGKLDMLVASVGTGGTITGIARKLKEKCPGCRITGVDPEGSILAEPEELNQTEQTTYEVEGIGYDFIPTVLDRTVVDKWFKSNDEEAFTFARMLIAQEGLLCGGSAGSTVAVAVKAAQELQEGQRCVVILPDSVRNYMTKFLSDRWMLQKGFLKEEDLTEKKPWWWHLRVQELGLSAPLTVLPTITCGHTIEILREKGFDQAPVVDEAGVILGMVTLGNMLSSLLAGKVQPSDQVGKVIYKQFKQIRLTDTLGRLSHILEMDHFALVVHEQIQYHSTGKSSQRQMVFGVVTAIDLLNFVAAQERDQK", "values": [
      {"measurement": "Rescue of cys4 yeast growth defect as a function of pyridoxine supplementation", "setting": "human CBS", "value": "more sensitive than the wild-type enzyme to limiting B6 levels"}
    ]},
    {"molecule": "R266K: homocystinuria allele of human CBS, vitamin B6-responsive (protein, UniProt P35520 1-551, looked up, variant R266K) Cystathionine beta-synthase: MPSETPQAEVGPTGCPHRSGPHSAKGSLEKGSPEDKEAKEPLWIRPDAPSRCTWQLGRPASESPHHHTAPAKSPKILPDILKKIGDTPMVRINKIGKKFGLKCELLAKCEFFNAGGSVKDRISLRMIEDAERDGTLKPGDTIIEPTSGNTGIGLALAAAVRGYRCIIVMPEKMSSEKVDVLRALGAEIVRTPTNARFDSPESHVGVAWRLKNEIPNSHILDQYRNASNPLAHYDTTADEILQQCDGKLDMLVASVGTGGTITGIAKKLKEKCPGCRIIGVDPEGSILAEPEELNQTEQTTYEVEGIGYDFIPTVLDRTVVDKWFKSNDEEAFTFARMLIAQEGLLCGGSAGSTVAVAVKAAQELQEGQRCVVILPDSVRNYMTKFLSDRWMLQKGFLKEEDLTEKKPWWWHLRVQELGLSAPLTVLPTITCGHTIEILREKGFDQAPVVDEAGVILGMVTLGNMLSSLLAGKVQPSDQVGKVIYKQFKQIRLTDTLGRLSHILEMDHFALVVHEQIQYHSTGKSSQRQMVFGVVTAIDLLNFVAAQERDQK", "values": [
      {"measurement": "Rescue of cys4 yeast growth defect as a function of pyridoxine supplementation", "setting": "human CBS", "value": "more sensitive than the wild-type enzyme to limiting B6 levels"}
    ]}
  ]
}
